Here are results for 27 compounds from ChEMBL document CHEMBL1153666, “K-13 and of4949: Evaluation of key partial structures and pharmacophore delineation” (Bioorg Med Chem Lett, 1993).

Assay [1] addresses T1, Angiotensin-converting enzyme (Oryctolagus cuniculus) (UniProt P12822).
T1 sequence (whole entry): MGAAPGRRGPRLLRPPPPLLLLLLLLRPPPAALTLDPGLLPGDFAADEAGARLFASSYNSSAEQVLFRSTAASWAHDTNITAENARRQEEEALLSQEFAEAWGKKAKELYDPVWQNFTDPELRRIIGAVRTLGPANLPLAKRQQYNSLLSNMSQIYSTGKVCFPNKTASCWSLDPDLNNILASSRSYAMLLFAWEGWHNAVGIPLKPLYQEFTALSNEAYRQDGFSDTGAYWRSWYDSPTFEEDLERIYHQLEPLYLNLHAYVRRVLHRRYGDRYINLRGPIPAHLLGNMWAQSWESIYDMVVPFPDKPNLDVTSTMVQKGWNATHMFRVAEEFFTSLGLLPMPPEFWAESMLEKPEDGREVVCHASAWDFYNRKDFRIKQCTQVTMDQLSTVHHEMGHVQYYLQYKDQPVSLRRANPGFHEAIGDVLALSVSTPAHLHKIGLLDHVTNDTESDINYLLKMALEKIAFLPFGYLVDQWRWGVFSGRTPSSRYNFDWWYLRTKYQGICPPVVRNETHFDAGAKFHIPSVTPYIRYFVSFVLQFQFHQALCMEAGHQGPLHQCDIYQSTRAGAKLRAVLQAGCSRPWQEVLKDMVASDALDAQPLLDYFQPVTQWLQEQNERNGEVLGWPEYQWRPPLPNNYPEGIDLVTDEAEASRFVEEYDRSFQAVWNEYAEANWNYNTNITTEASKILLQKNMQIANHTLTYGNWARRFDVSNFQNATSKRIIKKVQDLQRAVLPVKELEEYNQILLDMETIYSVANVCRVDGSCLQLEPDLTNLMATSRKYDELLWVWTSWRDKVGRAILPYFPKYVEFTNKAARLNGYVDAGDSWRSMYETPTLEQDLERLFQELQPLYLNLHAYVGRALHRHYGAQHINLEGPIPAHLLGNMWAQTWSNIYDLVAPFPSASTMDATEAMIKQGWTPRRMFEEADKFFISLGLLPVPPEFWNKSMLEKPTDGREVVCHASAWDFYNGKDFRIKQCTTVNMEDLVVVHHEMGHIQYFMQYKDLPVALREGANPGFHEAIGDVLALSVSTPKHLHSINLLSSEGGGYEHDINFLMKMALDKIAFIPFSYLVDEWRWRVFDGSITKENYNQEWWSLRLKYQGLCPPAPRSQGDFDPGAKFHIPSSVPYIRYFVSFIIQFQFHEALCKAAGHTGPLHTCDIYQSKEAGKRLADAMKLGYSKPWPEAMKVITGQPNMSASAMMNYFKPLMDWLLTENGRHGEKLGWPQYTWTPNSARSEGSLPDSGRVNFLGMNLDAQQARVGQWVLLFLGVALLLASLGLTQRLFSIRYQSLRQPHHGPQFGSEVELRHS
In words: Inhibition of Angiotensin I converting enzyme from rabbit lung acetone powder extract; Inactive.

For assay [2], the target named is T2, Angiotensin-converting enzyme (Oryctolagus cuniculus, UniProt P12822).
T2 sequence (P12822 whole entry): T1 sequence (whole entry)
Description: Inhibitory concentration against Angiotensin I converting enzyme obtained from rabbit lung acetone powder extract. The note with it: read-out: I50 (converted).

For assay [3], the system named is P388. In words: Tested for concentration that causes 50% inhibition of P388 leukemic cell growth, was determined in vitro. It is filed as functional, cell-based. The note with it: Mus musculus.
In assay [4] the target is T3, Aminopeptidase B (Rattus norvegicus) (UniProt O09175).
T3 sequence (whole entry): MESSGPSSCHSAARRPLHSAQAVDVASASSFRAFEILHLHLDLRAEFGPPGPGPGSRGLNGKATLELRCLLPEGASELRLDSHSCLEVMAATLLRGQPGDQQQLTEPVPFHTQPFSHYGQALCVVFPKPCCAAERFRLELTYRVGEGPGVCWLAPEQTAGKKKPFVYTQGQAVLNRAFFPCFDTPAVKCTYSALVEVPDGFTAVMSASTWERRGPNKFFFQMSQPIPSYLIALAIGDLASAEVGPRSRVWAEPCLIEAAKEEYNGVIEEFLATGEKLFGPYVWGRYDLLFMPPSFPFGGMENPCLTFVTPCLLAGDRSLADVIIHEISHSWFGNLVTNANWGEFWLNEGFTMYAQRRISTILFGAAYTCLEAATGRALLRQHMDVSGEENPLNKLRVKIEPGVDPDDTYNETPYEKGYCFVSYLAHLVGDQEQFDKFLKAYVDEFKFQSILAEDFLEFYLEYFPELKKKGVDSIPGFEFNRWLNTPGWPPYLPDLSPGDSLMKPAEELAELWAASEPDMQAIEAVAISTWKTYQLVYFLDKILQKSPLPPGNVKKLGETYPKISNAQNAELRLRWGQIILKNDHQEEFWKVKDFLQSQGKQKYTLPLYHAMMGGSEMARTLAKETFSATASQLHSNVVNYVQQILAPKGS
In words: Tested for percent inhibitory concentration that cause inhibition of rat liver aminopeptidase B at 220 ug/mL.

Assay [5] has as its target T1, Angiotensin-converting enzyme (Oryctolagus cuniculus). Description: Tested for percent inhibitory concentration that cause inhibition of Angiotensin I converting enzyme obtained from rabbit lung acetone powder extract at 100 ug/mL.
In assay [6] the target is T4, Aminopeptidase B (Rattus norvegicus, UniProt O09175).
T4 sequence (O09175 whole entry): T3 sequence (whole entry)
In words: Tested for concentration that causes 50% inhibition of rat liver aminopeptidase B, was determined. The note with it: read-out: I50 (converted).

The target in assay [7] is T3, Aminopeptidase B (Rattus norvegicus). In words: Percent inhibition of rat liver aminopeptidase B by 230 ug/mL was determined.
The target in assay [8] is T2, Angiotensin-converting enzyme. Description: Tested for inhibitory concentration that causes inhibition of Angiotensin I converting enzyme obtained from rabbit lung acetone powder extract). The note with it: read-out: I50 (converted).
Assay [9] shares this target. In words: Tested for inhibitory constant against Angiotensin I converting enzyme.
Assay [10] deals with P388. Description: Tested in vitro for concentration that causes 50% inhibition of P388 leukemic cell growth. It is filed as functional, cell-based. The note with it: Mus musculus.
The target in assay [11] is T1, Angiotensin-converting enzyme (Oryctolagus cuniculus). In words: Tested for inhibitory concentration that causes inhibition of Angiotensin I converting enzyme obtained from rabbit lung acetone powder extract. The note with it: concentration not given here.
Assay [12] concerns the target T4, Aminopeptidase B. In words: Tested for concentration that causes 50% inhibition of rat liver aminopeptidase B, was determined; Inactive.
The target in assay [13] is T1, Angiotensin-converting enzyme (Oryctolagus cuniculus). In words: Tested for percent inhibitory concentration that cause inhibition of Angiotensin I converting enzyme obtained from rabbit lung acetone powder extract at 200 ug/mL.

Molecules are shown by their SMILES. Calls of active or inactive are those of the source. The calls are words filed in the database; no cut-off is given here.

In the case of `CC(C)(C)OC(=O)N[C@@H](Cc1ccc(Oc2cc(C[C@H](NC(=O)OCc3ccccc3)C(=O)O)ccc2OCc2ccccc2)cc1)C(=O)N[C@H](Cc1ccc(O)cc1)C(=O)O`, in assay [1], the inhibition – broadly, the drop in the measured response relative to a control, in per cent – is “inactive”.

With `NC(=O)C[C@@H]1NC(=O)CCc2cccc(c2)Oc2ccc(cc2)CCNC1=O`, the inhibition entry in assay [1] is “inactive”.

As to `COc1ccc2cc1Oc1ccc(cc1)C[C@@H](C(=O)O)NC(=O)[C@H](CC(N)=O)NC(=O)[C@@H](N)C2`, the IC50 in assay [2] is 149 µM; with P388 [3], more than 10 mg/L.

Consider `COC(=O)CCc1cccc(Oc2ccc(CCNC(=O)[C@H](CC(N)=O)NC(=O)OC(C)(C)C)cc2)c1`, for which, in [1], the inhibition result is “inactive”.

As for `COC(=O)[C@@H]1Cc2ccc(cc2)Oc2cc(ccc2OCc2ccccc2)C[C@H](NC(=O)OCc2ccccc2)C(=O)N[C@@H](CC(N)=O)C(=O)N1`, the inhibition in assay [4] was found to be 14%.

`NC(=O)C[C@@H]1NC(=O)CCc2ccc(O)c(c2)Oc2ccc(cc2)CCNC1=O`: the IC50 in assay [2] was 528 µM.

`NC(=O)C[C@@H]1NC(=O)[C@@H](N)Cc2ccc(O)c(c2)Oc2ccc(cc2)C[C@@H](C(=O)O)NC1=O`: the IC50 is more than 10 mg/L in the assay with P388 [3] and 43.8 µM at Aminopeptidase B [6]. In [5], this compound displayed an inhibition of 11%.

For the compound `COc1ccc2cc1Oc1ccc(cc1)CCNC(=O)[C@H](CC(N)=O)NC(=O)CC2`, the IC50 in assay [2] was 535 µM.

As for `CC(=O)N[C@@H](Cc1ccc(Oc2cc(C[C@H](NC(=O)[C@H](Cc3ccc(O)cc3)NC(=O)OC(C)(C)C)C(=O)O)ccc2OCc2ccccc2)cc1)C(=O)O`, the inhibition entry in [1] is “inactive”.

Consider `COC(=O)[C@@H]1Cc2ccc(cc2)Oc2cc(ccc2OC)C[C@H](NC(=O)OCc2ccccc2)C(=O)N[C@@H](CC(N)=O)C(=O)N1`, for which the IC50 in assay [2] is 210 µM.

As for `COC(=O)CCc1cccc(Oc2ccc(CCNC(=O)CNC(=O)OC(C)(C)C)cc2)c1`, the inhibition result in assay [1] is “inactive”.

Regarding `COC(=O)[C@H](Cc1ccc(O)c(Oc2ccc(C[C@H](NC(=O)[C@H](CC(N)=O)NC(=O)OC(C)(C)C)C(=O)OC)cc2)c1)NC(=O)OCc1ccccc1`, in [1], the inhibition entry was “inactive”.

In the case of `COC(=O)CCc1ccc(OC)c(Oc2ccc(CCNC(=O)[C@H](CC(N)=O)NC(=O)OC(C)(C)C)cc2)c1`, the inhibition result in [1] is “inactive”.

On to `COC(=O)[C@@H]1Cc2ccc(cc2)Oc2cc(ccc2O)C[C@H](NC(=O)OCc2ccccc2)C(=O)N[C@@H](CC(N)=O)C(=O)N1`, for which the IC50 in assay [2] was 198 µM.

The compound `CC(=O)N[C@@H]1Cc2ccc(cc2)Oc2cc(ccc2O)C[C@H](C(=O)O)NC(=O)[C@H](Cc2ccc(O)cc2)NC1=O` came in with an inhibition in [7] of 13%. The IC50 is 0.183 µM in [8] and more than 10 mg/L in the assay on P388 [10]. In addition, in assay [9], the affinity corresponds to a Ki of 0.35 µM.

As for `O=C1CCc2ccc(O)c(c2)Oc2ccc(cc2)CCNC(=O)CN1`, the inhibition result in assay [1] was “inactive”.

Regarding `COC(=O)[C@@H]1Cc2ccc(cc2)Oc2cc(ccc2O)C[C@H](N)C(=O)N[C@@H](CC(N)=O)C(=O)N1`, in assay [2], the IC50 is 42.5 µM.

Regarding `O=C1CCc2cccc(c2)Oc2ccc(cc2)CCNC(=O)CN1`, the inhibition entry in [1] is “inactive”.

Consider `COC(=O)[C@H]1Cc2ccc(O)c(c2)Oc2ccc(cc2)C[C@H](NC(C)=O)C(=O)N[C@@H](Cc2ccc(O)cc2)C(=O)N1`, for which the IC50 in [2] was 0.89 µM.

As to `COC(=O)[C@H]1Cc2ccc(O)c(c2)Oc2ccc(cc2)C[C@H](N)C(=O)N[C@@H](Cc2ccc(O)cc2)C(=O)N1`, the IC50 in assay [2] was 1.15 µM.

For the compound `COc1ccc2cc1Oc1ccc(cc1)C[C@H](NC(C)=O)C(=O)N[C@@H](Cc1ccc(O)cc1)C(=O)N[C@H](C(=O)O)C2`, the IC50 in assay [2] is 5.34 µM.

`O=C1CCc2ccc(cc2)Oc2cccc(c2)CCNC(=O)[C@H](Cc2ccc(O)cc2)N1` registered an inhibition in [11] of 10%.

Take `COc1ccc2cc1Oc1ccc(cc1)C[C@@H](C(=O)O)NC(=O)[C@H](CC(N)=O)NC(=O)[C@@H](NC(=O)OCc1ccccc1)C2`: the IC50 in assay [2] was 182 µM.

With `O=C1CCc2ccc(cc2)Oc2cc(ccc2O)CCNC(=O)[C@H](Cc2ccc(O)cc2)N1`, the IC50 in assay [2] was 11.2 µM.

Regarding `COC(=O)[C@H](Cc1ccc(OCc2ccccc2)c(Oc2ccc(C[C@H](NC(=O)[C@H](CC(N)=O)NC(=O)OC(C)(C)C)C(=O)OC)cc2)c1)NC(=O)OCc1ccccc1`, the inhibition result in [1] was “inactive”.

Turning to `COC(=O)CCc1ccc(O)c(Oc2ccc(CCNC(=O)[C@H](CC(N)=O)NC(=O)OC(C)(C)C)cc2)c1`, the inhibition result in [1] is “inactive”.

Take `N[C@@H](Cc1ccc(Oc2cc(C[C@H](N)C(=O)O)ccc2O)cc1)C(=O)O`: in the assay with P388 [3], the IC50 is more than 10 mg/L. The I50 result on Aminopeptidase B [12] was “Not Active”. Also, the inhibition in [13] was found to be 13%.
